Reference: US9518060B2, “Substituted pyrrolo[3,4-c]pyrazoles as PKC kinase inhibitors” (PFIZER INC., priority 2007, dated 2016)

Target: Protein Kinase C beta 2 (PKCβII) (Homo sapiens (Human), UniProt P05771)
Assay: PKCβII coupled spectrophotometric kinase assay (PK/LDH, NADH absorbance at 340 nm)
Assay type: biochemical
Conditions: apparent Ki, ATP competitive inhibition model (Morrison equation); 0.1 mM ATP, 5 nM PKC, 30° C.; read-out: Ki app
Experimental: Protein Kinase C beta 2 (PKCβII) catalyzes the production of ADP from ATP that accompanies the phosphoryl transfer to the PKC Pseudosubstrate peptide (A→S, RFARKGSLRQKNV). This transfer is coupled to the oxidation of β-NADH through the activities of Pyruvate Kinase (PK) and Lactate Dehydrogenase (LDH). β-NADH conversion to NAD+ is monitored by the decrease in absorbance at 340 nm (e=6.22 cm^−1 mM^−1) using a Molecular Devices SPECTRA max PLUS spectrophotometer.
A typical assay was carried out on a 96-well, clear microtiter plate in a Molecular Devices spectrophotometer for 20 minutes at 30° C. in 0.1 mL of assay buffer containing 50 mM HEPES, pH 7.4, 5 nM PKC, 23 units of pyruvate kinase, 33 units of lactate dehydrogenase, 0.15 mM peptide, 0.1 mM ATP, 1 mM DTT, 4 mM PEP, 8 mM MgCl2, 0.3 mM NADH, 60 mM CaCl2, 10 mg/mL PS, 50 ng/mL PMA, 7.5% DMSO and from about 10,000 nM to 0.169 nM compound inhibitor. Stock solutions of 3-sn-phosphatidyl-L-serine (PS) and phorbol-12-myristate-13-acetate (PMA) were sonicated for 30 seconds just prior to addition to assay buffer and assays were initiated by the addition of 100 μM ATP.
Steady-state kinetic parameters for the bi-bi kinase reaction were determined at saturating phospho-acceptor peptide substrate concentration (0.15 mM) by fitting initial velocity data to the Michaelis-Menten equation, v=Vmax[S]/(KM+[S]) where v is the measured initial velocity, Vmax is the maximal enzyme velocity, [S] is the ATP substrate concentration, and KM is the Michealis constant for ATP. Enzyme turnover values (kcat) were calculated according to […], where [E] is the total enzyme concentration. Enzyme inhibition constants (apparent Ki values) were determined by fitting initial velocities at variable inhibitor concentrations to a model for ATP competitive inhibition based on the Morrison equation). Morrison, J. F., Biochim. Biophys Acta 185: 269-286 (1969).

Sequence of Protein Kinase C beta 2 (PKCβII) (P05771 other isoform, or with tags, fused parts or gaps): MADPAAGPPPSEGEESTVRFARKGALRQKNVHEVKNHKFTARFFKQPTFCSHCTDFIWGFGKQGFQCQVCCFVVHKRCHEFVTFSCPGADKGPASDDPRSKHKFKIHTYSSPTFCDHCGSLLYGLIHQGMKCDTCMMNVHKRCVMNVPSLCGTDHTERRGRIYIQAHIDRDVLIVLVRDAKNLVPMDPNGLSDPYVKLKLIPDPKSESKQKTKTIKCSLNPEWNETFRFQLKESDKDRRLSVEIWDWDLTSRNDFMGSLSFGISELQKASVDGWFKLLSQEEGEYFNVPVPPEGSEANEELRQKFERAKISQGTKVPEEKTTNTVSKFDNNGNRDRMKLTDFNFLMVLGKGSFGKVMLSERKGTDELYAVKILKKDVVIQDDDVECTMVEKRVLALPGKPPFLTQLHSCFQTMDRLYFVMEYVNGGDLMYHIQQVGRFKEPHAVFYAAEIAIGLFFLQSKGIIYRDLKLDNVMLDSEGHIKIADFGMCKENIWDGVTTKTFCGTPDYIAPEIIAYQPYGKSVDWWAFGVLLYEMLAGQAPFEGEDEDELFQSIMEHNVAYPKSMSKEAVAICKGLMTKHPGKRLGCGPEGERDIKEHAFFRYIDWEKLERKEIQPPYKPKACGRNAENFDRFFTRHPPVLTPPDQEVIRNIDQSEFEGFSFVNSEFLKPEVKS

Cc1cccc(Nc2n[nH]c3c2CN(C(=O)C2(F)CCN(C)CC2)C3(C)C)n1 [Example J2, 5-[(4-fluoro-1-methylpiperidin-4-yl)carbonyl]-6,6-dimethyl-N-(6-methylpyridin-2-yl)-1,4,5,6-tetrahydropyrrolo[3,4-c]pyrazol-3-amine]
Ki: 59.9 nM

Cc1ccc(F)c(Nc2n[nH]c3c2CN(C(=O)N2C[C@@H](C)N(C)C[C@@H]2C)C3(C)C)n1 [Example J3, N-(3-fluoro-6-methylpyridin-2-yl)-6,6-dimethyl-5-{[(2S,5R)-2,4,5-trimethylpiperazin-1-yl]carbonyl}-1,4,5,6-tetrahydropyrrolo[3,4-c]pyrazol-3-amine]
Ki: 2.63 nM

Cc1ccc(F)c(Nc2n[nH]c3c2CN(C(=O)N2C[C@]4(C)CCCN4C[C@@H]2C)C3(C)C)n1 [Example J4, 5-{[(3S,8aS)-3,8a-dimethylhexahydropyrrolo[1,2-a]pyrazin-2(1H)-yl]carbonyl}-N-(3-fluoro-6-methylpyridin-2-yl)-6,6-dimethyl-1,4,5,6-tetrahydropyrrolo[3,4-c]pyrazol-3-amine]
Ki: 8.64 nM

Cc1ccc(F)c(Nc2n[nH]c3c2CN(C(=O)N2C[C@@H]4CCCN4C[C@@H]2C)C3(C)C)n1 [Example J5, N-(3-fluoro-6-methylpyridin-2-yl)-6,6-dimethyl-5-{[(3S,8aS)-3-methylhexahydropyrrolo[1,2-a]pyrazin-2(1H)-yl]carbonyl}-1,4,5,6-tetrahydropyrrolo[3,4-c]pyrazol-3-amine]
Ki: 6.43 nM

Cc1ccc(F)c(Nc2n[nH]c3c2CN(C(=O)N2CC(C)(C)N(C)C[C@@H]2C)C3(C)C)n1 [Example J6, N-(3-fluoro-6-methylpyridin-2-yl)-6,6-dimethyl-5-{[(2S)-2,4,5,5-tetramethylpiperazin-1-yl]carbonyl}-1,4,5,6-tetrahydropyrrolo[3,4-c]pyrazol-3-amine]
Ki: 1.17 nM

Cc1cccc(Nc2n[nH]c3c2CN(C(=O)N2C[C@]4(C)CCCN4C[C@@H]2C)C3(C)C)n1 [Example J7, 5-{[(3S,8aS)-3,8a-dimethylhexahydropyrrolo[1,2-a]pyrazin-2(1H)-yl]carbonyl}-6,6-dimethyl-N-(6-methylpyridin-2-yl)-1,4,5,6-tetrahydropyrrolo[3,4-c]pyrazol-3-amine]
Ki: 111 nM

Cc1cccc(Nc2n[nH]c3c2CN(C(=O)N2C[C@@H](C)N(C)C[C@@H]2C)C3(C)C)n1 [Example J8, 6,6-dimethyl-N-(6-methylpyridin-2-yl)-5-{[(2S,5R)-2,4,5-trimethylpiperazin-1-yl]carbonyl}-1,4,5,6-tetrahydropyrrolo[3,4-c]pyrazol-3-amine]
Ki: 32 nM

COCc1ncc(F)c(Nc2n[nH]c3c2CN(C(=O)N2CC(C)(C)N(C)C[C@@H]2C)C3(C)C)n1 [Example J9, N-[5-fluoro-2-(methoxymethyl)pyrimidin-4-yl]-6,6-dimethyl-5-{[(2S)-2,4,5,5-tetramethylpiperazin-1-yl]carbonyl}-1,4,5,6-tetrahydropyrrolo[3,4-c]pyrazol-3-amine]
Ki: 2.1 nM

CCc1ncc(F)c(Nc2n[nH]c3c2CN(C(=O)N2C[C@@H](C)N(CC4CCOCC4)C[C@@H]2C)C3(C)C)n1 [Example J10, 5-{[(2S,5R)-2,5-dimethyl-4-(tetrahydro-2H-pyran-4-ylmethyl)piperazin-1-yl]carbonyl}-N-(2-ethyl-5-fluoropyrimidin-4-yl)-6,6-dimethyl-1,4,5,6-tetrahydropyrrolo[3,4-c]pyrazol-3-amine]
Ki: < 10 nM

COc1ccnc(Nc2n[nH]c3c2CN(C(=O)N2C[C@@H](C)N(C4CCOCC4)C[C@@H]2C)C3(C)C)n1 [Example J11, 5-{[(2S,5R)-2,5-dimethyl-4-(tetrahydro-2H-pyran-4-yl)piperazin-1-yl]carbonyl}-N-(4-methoxypyrimidin-2-yl)-6,6-dimethyl-1,4,5,6-tetrahydropyrrolo[3,4-c]pyrazol-3-amine]
Ki: < 10 nM

Cc1ccnc(Nc2n[nH]c3c2CN(C(=O)N2C[C@@H](C)N(C4CCOCC4)C[C@@H]2C)C3(C)C)n1 [Example J12, 5-{[(2S,5R)-2,5-dimethyl-4-(tetrahydro-2H-pyran-4-yl)piperazin-1-yl]carbonyl}-6,6-dimethyl-N-(4-methylpyrimidin-2-yl)-1,4,5,6-tetrahydropyrrolo[3,4-c]pyrazol-3-amine]
Ki: < 10 nM

C[C@@H]1CN(C(=O)N2Cc3c(Nc4nccc(C(F)(F)F)n4)n[nH]c3C2(C)C)[C@@H](C)CN1C1CCOCC1 [Example J13]
Ki: < 10 nM

COc1ccnc(Nc2n[nH]c3c2CN(C(=O)N2C[C@@H](C)N(CC4CCOCC4)C[C@@H]2C)C3(C)C)n1 [Example J14, 5-{[(2S,5R)-2,5-dimethyl-4-(tetrahydro-2H-pyran-4-ylmethyl)piperazin-1-yl]carbonyl}-N-(4-methoxypyrimidin-2-yl)-6,6-dimethyl-1,4,5,6-tetrahydropyrrolo[3,4-c]pyrazol-3-amine]
Ki: 19.2 nM

Cc1ccnc(Nc2n[nH]c3c2CN(C(=O)N2C[C@@H](C)N(CC4CCOCC4)C[C@@H]2C)C3(C)C)n1 [Example J15, 5-{[(2S,5R)-2,5-dimethyl-4-(tetrahydro-2H-pyran-4-ylmethyl)piperazin-1-yl]carbonyl}-6,6-dimethyl-N-(4-methylpyrimidin-2-yl)-1,4,5,6-tetrahydropyrrolo[3,4-c]pyrazol-3-amine]
Ki: < 10 nM

Cc1cc(C)nc(Nc2n[nH]c3c2CN(C(=O)N2C[C@@H](C)N(CC4CCOCC4)C[C@@H]2C)C3(C)C)n1 [Example J16, N-(4,6-dimethylpyrimidin-2-yl)-5-{[(2S,5R)-2,5-dimethyl-4-(tetrahydro-2H-pyran-4-ylmethyl)piperazin-1-yl]carbonyl}-6,6-dimethyl-1,4,5,6-tetrahydropyrrolo[3,4-c]pyrazol-3-amine]
Ki: 11.1 nM

CCOc1ncc(F)c(Nc2n[nH]c3c2CN(C(=O)N2C[C@@H](C)N(C)C[C@@H]2C)C3(C)C)n1 [Example K1, N-(2-ethoxy-5-fluoropyrimidin-4-yl)-6,6-dimethyl-5-{[(2S,5R)-2,4,5-trimethylpiperazin-1-yl]carbonyl}-1,4,5,6-tetrahydropyrrolo[3,4-c]pyrazol-3-amine]
Ki: 1.12 nM

CCOc1ncc(F)c(Nc2n[nH]c3c2CN(C(=O)N2C[C@@H](C)N(CC)C[C@@H]2C)C3(C)C)n1 [Example K2, N-(2-ethoxy-5-fluoropyrimidin-4-yl)-6,6-dimethyl-5-{[4-ethyl(2S,5R)-2,5-dimethylpiperazin-1-yl]carbonyl}-1,4,5,6-tetrahydropyrrolo[3,4-c]pyrazol-3-amine]
Ki: 2.11 nM

CCOc1ncc(F)c(Nc2n[nH]c3c2CN(C(=O)N2CC(C)(C)N(C)C[C@@H]2C)C3(C)C)n1 [Example K3, N-(2-ethoxy-5-fluoropyrimidin-4-yl)-6,6-dimethyl-5-{[(2S)-2,4,5,5-tetramethylpiperazin-1-yl]carbonyl}-1,4,5,6-tetrahydropyrrolo[3,4-c]pyrazol-3-amine]
Ki: 0.912 nM

CCOc1ncc(F)c(Nc2n[nH]c3c2CN(C(=O)N2C[C@@H](C)N(CCOC)C[C@@H]2C)C3(C)C)n1 [Example K4, N-(2-ethoxy-5-fluoropyrimidin-4-yl)-5-{[(2S,5R)-4-(2-methoxyethyl)-2,5-dimethylpiperazin-1-yl]carbonyl}-6,6-dimethyl-1,4,5,6-tetrahydropyrrolo[3,4-c]pyrazol-3-amine]
Ki: 3.33 nM

CCOc1ncc(F)c(Nc2n[nH]c3c2CN(C(=O)N2C[C@@H](C)N(CCCOC)C[C@@H]2C)C3(C)C)n1 [Example K5]
Ki: 0.683 nM

COCCCN1C[C@H](C)N(C(=O)N2Cc3c(Nc4nc(OCC(F)(F)F)ncc4F)n[nH]c3C2(C)C)C[C@H]1C [Example K6, N-[5-fluoro-2-(2,2,2-trifluoroethoxy)pyrimidin-4-yl]-5-{[(2S,5R)-4-(3-methoxypropyl)-2,5-dimethylpiperazin-1-yl]carbonyl}-6,6-dimethyl-1,4,5,6-tetrahydropyrrolo[3,4-c]pyrazol-3-amine]
Ki: 0.376 nM

C[C@@H]1CN(C(=O)N2Cc3c(Nc4nc(OCC(F)(F)F)ncc4F)n[nH]c3C2(C)C)[C@@H](C)CN1C [Example K7, N-[5-fluoro-2-(2,2,2-trifluoroethoxy)pyrimidin-4-yl]-6,6-dimethyl-5-{[(2S,5R)-2,4,5-trimethylpiperazin-1-yl]carbonyl}-1,4,5,6-tetrahydropyrrolo[3,4-c]pyrazol-3-amine]
Ki: 0.165 nM

C[C@H]1CN(C)C(C)(C)CN1C(=O)N1Cc2c(Nc3nc(OCC(F)(F)F)ncc3F)n[nH]c2C1(C)C [Example K8, N-[5-fluoro-2-(2,2,2-trifluoroethoxy)pyrimidin-4-yl]-6,6-dimethyl-5-{[(2S)-2,4,5,5-tetramethylpiperazin-1-yl]carbonyl}-1,4,5,6-tetrahydropyrrolo[3,4-c]pyrazol-3-amine]
Ki: 0.181 nM
